Data taken from BindingDB's records for doi:10.1021/jm0409019 (Institute of Chemical Sciences and Engineering, 2005).

Assays:
[1] = biological target: alpha-mannosidase (Canavalia ensiformis); assay: Binding affinity towards alpha-Mannosidase isolated from jack bean
[2] = biological target: alpha-mannosidase (Canavalia ensiformis); assay: Inhibition of alpha-Mannosidase isolated from Jack bean
[3] = biological target: alpha-mannosidase (Canavalia ensiformis); assay: Concentration of compound inhibiting alpha-Mannosidase isolated from Jack bean
[4] = biological target: alpha-mannosidase (Canavalia ensiformis); assay: Binding affinity towards alpha-Mannosidase isolated from Jack bean

| Ki [1] [µM] | IC50 [2] [µM] | IC50 [3] [µM] | Ki [4] [µM] | Structure (SMILES) |
| --- | --- | --- | --- | --- |
| 16 | 58 |  |  | O[C@H]1[C@@H](O)CN[C@@H]1CNC(COCc1ccccc1)c1ccccc1 (stereo partly drawn) [(2R,3R,4S)-2-[((R)-2-Benzyloxy-1-phenyl-ethylamino)-methyl]-pyrrolidine-3,4-diol] |
|  |  | 128 |  | O[C@H]1[C@@H](O)CN[C@@H]1CN[C@@H](c1ccccc1)[C@H](O)c1ccccc1 [(2R,3R,4S)-2-[((R)-Phenyl-1-(S)-2-hydroxy-2-phenyl-ethylamino)-methyl]-pyrrolidine-3,4-diol] |
|  |  | 17 | 2.3 | O[C@H]1[C@@H](O)CN[C@@H]1CNC1CCc2ccccc21 (stereo partly drawn) [(2R,3R,4S)-2-((R)-Indan-1-ylaminomethyl)-pyrrolidine-3,4-diol] |

Second part, the compound before the results:

| Structure (SMILES) | Ki [1] [µM] | IC50 [2] [µM] | IC50 [3] [µM] | Ki [4] [µM] |
| --- | --- | --- | --- | --- |
| OCC(NC[C@H]1N[C@H](CO)[C@H](O)[C@@H]1O)c1ccccc1 (stereo partly drawn) [(2R,3S,4R,5R)-2-Hydroxymethyl-5-[((R)-2-hydroxy-1-phenyl-ethylamino)-methyl]-pyrrolidine-3,4-diol] |  |  | 4.2 | 1.35 |
| O=C(NCC(NC[C@H]1NC[C@H](O)[C@@H]1O)c1ccccc1)c1cccc(Br)c1 (stereo partly drawn) [3-Bromo-N-{2-[((2R,3R,4S)-3,4-dihydroxy-pyrrolidin-2-ylmethyl)-amino]-2-phenyl-ethyl}-benzamide] |  |  | 89 |  |
| O[C@H]1[C@@H](O)CN[C@@H]1CN[C@H](c1ccccc1)[C@@H](O)c1ccccc1 [(2R,3R,4S)-2-[((S)-Phenyl-1-(R)-2-hydroxy-2-phenyl-ethylamino)-methyl]-pyrrolidine-3,4-diol] |  |  | 110 |  |
